In PMC11930985 (Nature Communications, 2025):
“And” between values parts separate entries of the source, which are not always exact repeats. Equal entries are not always repeated.

Biological target: T1, pAXL (Homo sapiens, UniProt P30530)
T1 construct: AML blasts were identified within the peripheral blood mononuclear cell population by CyTOF; endogenous in cells
T1 sequence (P30530 26-894): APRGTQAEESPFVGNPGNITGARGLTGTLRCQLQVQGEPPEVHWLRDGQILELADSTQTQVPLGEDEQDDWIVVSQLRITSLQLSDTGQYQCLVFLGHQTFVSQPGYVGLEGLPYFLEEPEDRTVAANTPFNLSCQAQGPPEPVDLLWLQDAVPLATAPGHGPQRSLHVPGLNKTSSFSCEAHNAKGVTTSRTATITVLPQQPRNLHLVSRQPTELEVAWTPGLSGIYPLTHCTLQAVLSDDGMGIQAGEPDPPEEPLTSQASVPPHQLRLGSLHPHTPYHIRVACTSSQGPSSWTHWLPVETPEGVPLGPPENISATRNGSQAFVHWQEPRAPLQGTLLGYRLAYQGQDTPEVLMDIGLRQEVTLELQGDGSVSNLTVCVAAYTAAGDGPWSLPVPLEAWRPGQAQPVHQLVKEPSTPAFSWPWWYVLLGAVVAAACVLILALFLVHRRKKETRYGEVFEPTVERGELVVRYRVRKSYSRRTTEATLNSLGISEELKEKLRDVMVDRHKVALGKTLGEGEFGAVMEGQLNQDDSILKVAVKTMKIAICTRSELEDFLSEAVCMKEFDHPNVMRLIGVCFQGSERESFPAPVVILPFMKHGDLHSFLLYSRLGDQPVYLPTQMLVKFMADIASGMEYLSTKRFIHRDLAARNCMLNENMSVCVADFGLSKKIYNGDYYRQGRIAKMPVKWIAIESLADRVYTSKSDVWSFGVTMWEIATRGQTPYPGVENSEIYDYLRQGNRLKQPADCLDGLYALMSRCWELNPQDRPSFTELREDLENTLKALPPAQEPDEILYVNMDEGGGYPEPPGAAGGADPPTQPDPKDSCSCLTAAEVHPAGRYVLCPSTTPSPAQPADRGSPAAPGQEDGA
Assay: CyTOF maximal pAXL inhibition in AML blasts vs bemcentinib concentration
Assay type: in vivo
Text: Pharmacodynamic endpoints included the measurement of inhibition of pAXL, pERK, pAKT, pS6 and pSTAT1/3/5 in blast cells (defined as cells with abnormal surface marker expression as compared to healthy donor peripheral blood mononuclear cells and undefined/immature myeloid cells (defined as cells carrying myeloid markers but lacking distinguishing terminal differentiation markers). Mass cytometry time of flight (CyTOF) was used for the determination of the pharmacodynamic markers using a previously validated and tested panel of mass-tagged antibodies[39],[40]. The antibodies in the panel are listed in Supplementary Table 5. Briefly, fixed leukocytes from peripheral blood were barcoded using a 20-plex metal barcoding kit (Standard Biotools, Cell-ID 201060) according to manufacturer’s protocol, allowing all the samples from a single individual to be stained and analysed in parallel. All analysis runs included barcoded peripheral blood mononuclear cells (PBMCs) from at least one healthy donor and an identical barcoded reference sample (mix of PBMCs from six healthy donors). Barcoded cells (approx. 6 × 10^6) were treated with FC receptor block (Octagam, 1:1000 (Octapharma) in MaxPar cell staining buffer (CSB, Standard Biotools 201068), 15 min, room temperature) and treated with heparin (100 IU/mL in CSB, 20 min) to reduce non-specific staining artefacts. The sample was then stained with an optimised mixture of mass-tagged surface antibodies in a total staining volume of 600 μL (30 min, room temperature). Subsequently, the sample was permeabilized with cold (-20 °C) 100 % methanol (15 min, on ice), re-treated with heparin, and stained with a panel of intracellular mass-tagged antibodies (as described above). DNA was labelled with iridium-191/193 by incubation in 0.1 nM Ir-nucleic acid intercalator (Standard Biotools 201192) diluted in MaxPar PBS (Standard biotools 201058) containing 4% PFA overnight at 4 °C. […]
For each population, marker, and sample, the 95th percentile of the non-transformed expression values was calculated. […]

Compound: Nc1nc(Nc2ccc3c(c2)CC[C@@H](N2CCCC2)CC3)nn1-c1cc2c(nn1)-c1ccccc1CCC2 [Bemcentinib]
- Maximum inhibition (percent) pAXL(Y779) (Figure 4, individual patients (Pt 1-13)): 14.7% and 1.3% and 25.7% and 0.4% and 26.3% and 2.9% and 13.4% and 0% and 16.1% and 15.5% and 11.4% and 7%
- Plasma concentrations at which inhibition of pAXL was seen (peripheral blood, DE cohort): 45–347 ng/mL
- Time to intracellular phospho-signaling changes vs pre-treatment (peripheral blood, DE cohort): ≤ 4 h
